Here are results for 9 molecules from patent publication US7858657B2 (Proix Pharmaceutical Corp., priority 2004, dated 2010).

Values joined by “and” are separate entries in the source; they are usually repeats but may differ in a detail not shown here. Equal entries are not always repeated. Structures can show the parent of a compound that is named as a salt. Marks after values point to notes of the source that are not given here.

For orientation: IC50 means the midpoint of a concentration-inhibition curve.

Assay [1] in a line: Glucose tolerance studies. Particulars: mean ± SE of 4 mice.
Method: Glucose Tolerance Studies. Female C5781/6 mice were fasted overnight and administered a single dose of D(+) glucose (1 mg/kg) as a 0.1 g/ml solution po. […] Human recombinant insulin was administered at 0.075:g/kg ip (26) at the same time as glucose administration.
Values are the mean±SE of 4 mice per group.
In assay [2] the test system is OvCaR-3 ovarian. Kind of assay: Antitumor activity of wortmannin analogs, OvCaR-3 ovarian tumor (Table 1). Particulars: initial tumor vol 120 mm^3; for T/C % (optimal test/control): day 40. Format: in vivo.
The test system of assay [3] is HT-29 colon. Kind of assay: Antitumor activity of wortmannin analogs, HT-29 colon tumor (Table 1). Particulars: for T/C % (optimal test/control): day 16. Type of assay: in vivo.
For a further assay, the system named is A-549 lung. The assay can be described thus: Antitumor activity of cytotoxic drugs alone or combined with PX-866, A-549 lung (Table 2). Type of assay: in vivo. Particulars: size 300 mm^3; cisplatin ip 1 mg/kg QD × 5.
For assay [4], the system named is HT-29 colon. The assay can be described thus: Antitumor activity of cytotoxic drugs alone or combined with PX-866, HT-29 colon (Table 2). Type of assay: in vivo. Particulars: size 150 mm^3; cisplatin ip 2.5 mg/kg Q2D × 3.
Assay [5] has as its system A-549 human nsc lung cancer xenografts. Kind of assay: Antitumor studies, PX-866 and gefitinib in A-549 xenografts. Format: in vivo, scid mice. On the procedure:
Antitumor Studies. […] When the tumors reached 100 or 600 mm3 the mice were stratified into groups of 8 animals having approximately equal mean tumor volumes and drug administration was started. […] Animals were weighed weekly and tumor diameters were measured twice weekly at right angles (d short and d long) with electronic calipers and tumor volumes calculated by the formula volume=(dshort)2×(dlong))2. When the tumor reached 2,000 mm3 or more, or became necrotic the animals were euthanized.
In vivo antitumor studies. […] Tumors were allowed to grow to a mean volume of […] before drug treatment was started every other day for 14 doses. Antitumor activity is expressed as the % volume of the treated tumor/control tumor (T/C %) at the end of the dosing period. There were 8 mice in each group and all differences are p<0.01.

The subject of assay [6] is tumor phospho-Akt (A-549 tumor xenografts). Kind of assay: Pharmacodynamic studies, tumor phospho-Akt in A-549 xenografts. Format: in vivo, scid mice. Particulars: gefitinib 75 mg/kg po every other day for 5 days. From the text:
Pharmacodynamic Studies. […] Tumor Akt activity was expressed as the ratio of phospho-Ser473-Akt to total Akt.

For a further assay, the system named is Panc-1 pancreatic. The assay can be described thus: Antitumor activity of cytotoxic drugs alone or combined with PX-866, Panc-1 pancreatic (Table 2). To be noted: size 75 mm^3; gemcitabine ip 150 mg/kg Q3D × 3. Type of assay: in vivo.
Assay [7] relates to OvCaR-3 ovarian. Kind of assay: Antitumor activity of cytotoxic drugs alone or combined with PX-866, OvCar-3 ovarian (Table 2). Format: in vivo. Particulars: size 110 mm^3; taxol ip 12 mg/kg Q2D × 5.
The target of the next assay is T1, p110α/p85α (Bos taurus, UniProt P32871).
T1 construct: purchased Upstate (Charlottesville, Va.)
T1 sequence (P32871 whole entry): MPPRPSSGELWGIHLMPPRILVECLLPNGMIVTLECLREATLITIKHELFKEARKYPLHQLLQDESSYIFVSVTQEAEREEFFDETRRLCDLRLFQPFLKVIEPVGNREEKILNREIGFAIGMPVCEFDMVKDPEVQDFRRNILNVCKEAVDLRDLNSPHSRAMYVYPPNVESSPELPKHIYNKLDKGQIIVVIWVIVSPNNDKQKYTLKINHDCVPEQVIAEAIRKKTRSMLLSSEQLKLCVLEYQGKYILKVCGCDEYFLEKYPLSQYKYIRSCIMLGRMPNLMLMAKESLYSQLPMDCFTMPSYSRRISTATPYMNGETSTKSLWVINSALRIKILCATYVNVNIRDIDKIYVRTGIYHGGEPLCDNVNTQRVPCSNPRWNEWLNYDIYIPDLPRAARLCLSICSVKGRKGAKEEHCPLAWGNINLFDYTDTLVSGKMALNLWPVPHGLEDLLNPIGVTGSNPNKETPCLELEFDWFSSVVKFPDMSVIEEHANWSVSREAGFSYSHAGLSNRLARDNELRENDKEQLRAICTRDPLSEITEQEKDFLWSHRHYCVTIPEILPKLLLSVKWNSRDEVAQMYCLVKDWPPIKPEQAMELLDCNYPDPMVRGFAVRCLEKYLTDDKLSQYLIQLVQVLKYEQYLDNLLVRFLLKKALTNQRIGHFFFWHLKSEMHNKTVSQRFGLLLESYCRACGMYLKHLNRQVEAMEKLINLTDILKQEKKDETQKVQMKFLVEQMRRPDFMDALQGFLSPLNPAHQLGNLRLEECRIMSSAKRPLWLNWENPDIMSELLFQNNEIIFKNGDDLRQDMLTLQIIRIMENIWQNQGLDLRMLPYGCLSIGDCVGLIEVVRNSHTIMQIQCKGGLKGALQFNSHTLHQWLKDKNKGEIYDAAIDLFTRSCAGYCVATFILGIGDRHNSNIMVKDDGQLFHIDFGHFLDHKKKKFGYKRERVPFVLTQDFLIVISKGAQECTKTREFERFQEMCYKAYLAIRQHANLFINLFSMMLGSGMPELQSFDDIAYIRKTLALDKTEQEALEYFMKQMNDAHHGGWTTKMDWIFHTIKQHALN
T1 sequence (P23727 2-724 partner): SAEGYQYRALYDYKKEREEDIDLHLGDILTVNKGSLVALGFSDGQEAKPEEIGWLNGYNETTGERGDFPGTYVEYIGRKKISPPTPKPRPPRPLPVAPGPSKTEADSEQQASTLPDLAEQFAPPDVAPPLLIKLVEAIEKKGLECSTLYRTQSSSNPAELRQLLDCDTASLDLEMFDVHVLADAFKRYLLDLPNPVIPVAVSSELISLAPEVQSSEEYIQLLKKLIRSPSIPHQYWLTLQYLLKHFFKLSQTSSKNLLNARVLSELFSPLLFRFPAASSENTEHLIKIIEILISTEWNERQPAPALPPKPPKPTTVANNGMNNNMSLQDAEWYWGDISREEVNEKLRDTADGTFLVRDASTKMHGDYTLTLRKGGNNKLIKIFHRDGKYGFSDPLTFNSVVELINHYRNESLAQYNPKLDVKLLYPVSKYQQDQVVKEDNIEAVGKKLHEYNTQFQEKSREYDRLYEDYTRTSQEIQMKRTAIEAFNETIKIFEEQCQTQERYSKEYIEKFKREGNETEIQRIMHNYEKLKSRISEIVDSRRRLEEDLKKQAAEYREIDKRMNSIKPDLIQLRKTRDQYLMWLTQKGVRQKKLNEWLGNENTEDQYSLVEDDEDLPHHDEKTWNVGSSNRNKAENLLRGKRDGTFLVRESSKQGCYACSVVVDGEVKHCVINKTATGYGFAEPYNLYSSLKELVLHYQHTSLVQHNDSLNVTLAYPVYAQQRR
Kind of assay: Inhibition of recombinant PtdIns-3-kinase, [32P]-ATP dependent phosphorylation of PtdIns. Type of assay: biochemical, bovine. An excerpt:
Materials and Methods. Compounds. […] Rabbit purified anti-phosphoSer473-Akt antibody, anti-Akt antibody, antiphospho Tyr1086-EGF-receptor antibody and anti-EGFR antibody were obtained from Cell Signaling Technology (Beverly, Mass.). Human recombinant p110α/p85α, p110β/p85α, p120 (and p110*/p85α PtdIns-3-kinases were obtained from Upstate (Charlottesville, Va.). Metformin hydrochloride was obtained from Spectrum Chemical (Gardena, Calif.), pioglitazone hydrochloride and recombinant human insulin from Sigma Chemical (St. Louis).
Measurement of PtdIns-3-kinase.

[8] abbreviates: initial tumor vol 170 mm^3, 13 mg/kg/day ip Q1D × 9.
The mark [9] stands for this setting: initial tumor vol 180 mm^3, 0.75 mg/kg/day ip Q1D × 9.

Turning to `CN(C)C(=N)N=C(N)N` [Metformin, Metformin hydrochloride, reference compound], the “plasma glucose AUC0-180 min” value in assay [1] (Metformin 250 mg/kg IP QD × 5, without PX-866) is 367 ± 46 mg·min/mL; in [1] (Metformin 250 mg/kg IP QD × 5 with PX-866 10 mg/kg po, hydrochloride) it was 537 ± 4^b mg · min · ml^−1; in [1] (Metformin 250 mg/kg IP QD × 5 with PX-866 10 mg/kg po, listed as metformin, hydrochloride), “had no effect”.

On to `COC[C@@H]1OC(=O)/C(=C/N2CCCC2)C2=C(O)C(=O)C3=C([C@H](OC(C)=O)C[C@]4(C)C(=O)CC[C@H]34)[C@]21C` [PX-867, Acetic acid 6-hydroxy-1α-methoxymethyl-10β,13β-dimethyl-3,7,17-trioxo-4-pyrrolidin-1-yl-methylene-1,3,4,7,10,11β,12,13,14α,15,16,17-dodecahydro-2-oxa-cyclopenta[α]phenanthren-11-yl], for which, in the assay on OvCaR-3 ovarian [2] (13 mg/kg/day ip Q1D × 9), the “Growth Delay” value came out at 6 days, the Log10 cell kill is recorded as 0.6 and the “T/C % (optimal test/control)” value is recorded as 41 (40) %. Also, in the assay on HT-29 colon [3] (setting [8]), the “Growth Delay” value worked out at 0 days, the Log10 cell kill was 0 and the “T/C % (optimal test/control)” value is listed as 80 (16) %.

For `CCc1ccc(CCOc2ccc(CC3SC(=O)NC3=O)cc2)nc1` (stereo not drawn) [Pioglitazone, pioglitazone hydrochloride, reference compound], the “plasma glucose AUC0-180 min” value in assay [1] (Pioglitazone 10 mg/kg ip QD × 7, without PX-866) is 274 ± 3 mg·min/mL; in assay [1] (Pioglitazone 10 mg/kg ip QD × 7 with PX-866 10 mg/kg po, hydrochloride), 340 ± 39^c mg · min · ml^−1.

With `N.N.[Cl][Pt][Cl]` [cisplatin, reference compound], in the assay on A-549 lung, the “Alone Growth delay days” value is listed as 1 days, the “Alone TGI %” value was found to be 16% and the “Alone log cell kill” value was 0.1. In the assay with HT-29 colon [4], the “Alone Growth delay days” value came out at 0 days, the “Alone TGI %” value is reported as 11% and the “Alone log cell kill” value was 0.

Regarding `COc1cc2ncnc(Nc3ccc(F)c(Cl)c3)c2cc1OCCCN1CCOCC1` [gefitinib, reference compound], the “tumor T/Cs” value in assay [5] (administered long term, single agent (discussion)) is given as “around 50%”. Besides, in [5] (gefitinib po 75 mg/kg QOD × 14, 100 mm3 tumors, end of dosing period, 75 mg/kg), the “Tumor T/C %” value was 51% and 50.8%. For the same molecule, the “effect upon tumor phospho-Akt” value in assay [6] is listed as “no significant effect”.

`Nc1ccn([C@@H]2O[C@H](CO)[C@@H](O)C2(F)F)c(=O)n1` [gemcitabine, reference compound]: in the assay with Panc-1 pancreatic, the “Alone Growth delay days” value amounted to 7 days, the “Alone TGI %” value is 38% and the “Alone log cell kill” value is recorded as 0.2.

Turning to `CC(=O)O[C@H]1C(=O)[C@@]2(C)[C@H]([C@H](OC(=O)c3ccccc3)[C@]3(O)C[C@H](OC(=O)[C@H](O)[C@@H](NC(=O)c4ccccc4)c4ccccc4)C(C)=C1C3(C)C)[C@]1(OC(C)=O)CO[C@@H]1C[C@@H]2O` [taxol, paclitaxel, reference compound], in the assay on OvCaR-3 ovarian [7], the “Alone Growth delay days” value stood at 13 days, the “Alone TGI %” value was found to be 58% and the “Alone log cell kill” value came to 1.0.

Regarding `COC[C@H]1OC(=O)c2coc3c2[C@@]1(C)C1=C(C3=O)[C@@H]2CCC(=O)[C@@]2(C)C[C@H]1OC(C)=O` [wortmannin, reference compound], in the assay with OvCaR-3 ovarian [2] (0.75 mg/kg/day ip Q1D × 9), the “Growth Delay” value is 5 days, the Log10 cell kill came out at 0.5 and the “T/C % (optimal test/control)” value is 47 (40) %. In the assay with HT-29 colon [3] (setting [9]), the “Growth Delay” value was 5 days, the Log10 cell kill was 0.3 and the “T/C % (optimal test/control)” value is recorded as 36 (16) %. Moreover, the IC50 at p110α/p85α is 4 nM.

For “Insulin: recombinant human insulin from Sigma Chemical”, the “plasma glucose AUC0-180 min” value in assay [1] (Insulin 0.075 μ/kg ip with PX-866 10 mg/kg po) is 64 ± 5^ mg · min · ml^−1; in assay [1] (Insulin 0.075 μ/kg ip with PX-866 10 mg/kg po, listed as insulin), “overcame the increase in plasma glucose caused by PX-866”; in [1] (Insulin 0.075 μ/kg ip, without PX-866) it was 64 ± 25 mg·min/mL.
